Where a SMILES comes first, the peptide text is derived from it. [ ]: non-standard residue; d: D form. The star is where a group is joined. Biotin = O=C1N[C@H]2[C@H](CS[C@H]2CCCCC(=O)*)N1; Phe(3,4-Cl2) = N[C@@H](Cc1ccc(Cl)c(Cl)c1)C(=O)O; Lys(Me3) = C[N+](C)(C)CCCC[C@H](N)C(=O)O; Phe(4-Me) = Cc1ccc(C[C@H](N)C(=O)O)cc1; Palmitoyl = CCCCCCCCCCCCCCCC(=O)*; Hyp = O=C(O)[C@@H]1C[C@@H](O)CN1; Ahp = NCCCCCCC(=O)O; βAla = NCCC(=O)O
Experiments:
Assay type in all cases: cell-based, Human
[1] = tested on: Collagen I (type I collagen); assay: ELISA: effect of increasing the content of Collagen I in fibroblasts; set-up: Effect of increasing the content of Collagen I in the fibroblasts: unit not given here; conditions: 1 µM, 24 h; for Effect of increasing the content of Collagen I in the fibroblasts: human-derived fibroblasts, ELISA, blank control BC = 35.6; for increase in the content of type I collagen (Collagen I): in words, compared to the BC, fibroblasts
Description: (§1) B. Effects of increasing the contents of Collagen I (type I collagen), hyaluronic acid (HA), and Elastin (ELN) in fibroblasts
(§2) Test materials: Human-derived fibroblasts (Guangdong BioCell Biotechnology Co., Ltd., Lot No. Fb20081902), DMEM culture medium (Gibco, 23042301, expiration date 230522), PBS (Solarbio, P1010), TGF-β1 (Peprotech, 230504), Collagen I ELISA Kit (Cusabio, B21025824), Elastin ELISA Kit (Abcam, GR3446070-2), HA ELISA Kit (RD, P325066), CO2 incubator (Thermo, 150I), super-clean bench (AIRTECH, SW-CJ-1F), and microplate reader (BioTek, Epoch).
(§3) Test methods: • 1) Inoculation: After cell resuscitation, the cells were inoculated into 6-well plates when the plating rate reached around 60%, and were incubated overnight in an incubator (37°C, 5% CO2). • 2) Formulation of solutions: The linear peptide compounds in the sample groups, and PC2 (Biotinoyl-GHK, [drawing 69] ) and PC3 ( [drawing 70] ) in the positive control group were all at the concentration of 1 µM, and the test substance working solutions were formulated. • 3) Administration: When the cell plating rate in the 6-well plates reached 40% to 60%, administration was performed at 2 mL per well. Three duplicate wells were set for each group. Incubation was performed in an incubator (37°C, 5% CO2) for 24 h. • 4) ELISA assay: The ELISA assays were performed according to the instructions of the respective ELISA kits, with the detection indicators being effect of increasing the content of Collagen I in the fibroblasts, effect of increasing the content of HA in the fibroblasts, and effect of increasing the content of Elastin in the fibroblasts, respectively.

hyaluronic acid (HA) = assay: ELISA: effect of increasing the content of HA in fibroblasts; set-up: Effect of increasing the content of HA in the fibroblasts: unit not given here; conditions: 1 µM, 24 h; for Effect of increasing the content of HA in the fibroblasts: human-derived fibroblasts, ELISA, blank control BC = 1402.44; for increase in the content of hyaluronic acid (HA): in words, compared to the BC, fibroblasts
Description: as §1, §2, §3

Elastin (ELN) = assay: ELISA: effect of increasing the content of Elastin in fibroblasts; set-up: Effect of increasing the content of Elastin in the fibroblasts: unit not given here; conditions: 1 µM; for Effect of increasing the content of Elastin in the fibroblasts: 24 h incubation, ELISA, blank control (BC) 756.52; for increase in the content of Elastin: in words, compared to the BC, 24 h, fibroblasts
Description: as §1, §2, §3

Structure (SMILES): CNC(=O)[C@H](CCCCN)NC(=O)[C@H](Cc1c[nH]cn1)NC(=O)CNC(=O)[C@H](C)NC(=O)[C@H](C)NC(=O)[C@H](C)NC(=O)[C@H](CCCCN)NC(=O)[C@H](Cc1c[nH]cn1)NC(=O)CNC(C)=O [compound 23] (Ac-GHKAAAGHK-NHMe)
- Effect of increasing the content of Collagen I in the fibroblasts [1]: 46.06
- increase in the content of type I collagen (Collagen I) [1]: significant increase
- Effect of increasing the content of HA in the fibroblasts (hyaluronic acid (HA)): 2533.64
- increase in the content of hyaluronic acid (HA) (hyaluronic acid (HA)): significant increase
- Effect of increasing the content of Elastin in the fibroblasts (Elastin (ELN)): 1097.64
- increase in the content of Elastin (Elastin (ELN)): significant increase

Structure (SMILES): CNC(=O)CNC(=O)[C@H](Cc1c[nH]cn1)NC(=O)[C@H](CCCCN)NC(=O)CCNC(=O)CCNC(C)=O [compound 76] (Ac-[βAla][βAla]KHG-NHMe)
- Effect of increasing the content of Collagen I in the fibroblasts [1]: 47.05
- increase in the content of type I collagen (Collagen I) [1]: significant increase
- Effect of increasing the content of HA in the fibroblasts (hyaluronic acid (HA)): 2607.31
- increase in the content of hyaluronic acid (HA) (hyaluronic acid (HA)): significant increase
- Effect of increasing the content of Elastin in the fibroblasts (Elastin (ELN)): 1061.55
- increase in the content of Elastin (Elastin (ELN)): significant increase

Structure (SMILES): CNC(=O)CNC(=O)[C@H](Cc1c[nH]cn1)NC(=O)[C@H](CCCCN)NC(=O)CCCCCCNC(C)=O [compound 77] (Ac-[Ahp]KHG-NHMe)
- Effect of increasing the content of Collagen I in the fibroblasts [1]: 89.94
- increase in the content of type I collagen (Collagen I) [1]: significant increase
- Effect of increasing the content of HA in the fibroblasts (hyaluronic acid (HA)): 3493
- increase in the content of hyaluronic acid (HA) (hyaluronic acid (HA)): significant increase
- Effect of increasing the content of Elastin in the fibroblasts (Elastin (ELN)): 1093.49
- increase in the content of Elastin (Elastin (ELN)): significant increase

Structure (SMILES): CCCCCCCCCCCCCCCC(=O)N[C@@H](CCCC[N+](C)(C)C)C(=O)N[C@@H](C)C(=O)N[C@@H](C)C(=O)N[C@@H](C)C(=O)NCC(=O)N[C@@H](Cc1c[nH]cn1)C(=O)N[C@@H](CCCCN)C(=O)O [compound 234] (Palmitoyl-[Lys(Me3)]AAAGHK-OH)
- Effect of increasing the content of Collagen I in the fibroblasts [1]: 49.53
- increase in the content of type I collagen (Collagen I) [1]: significant increase
- Effect of increasing the content of HA in the fibroblasts (hyaluronic acid (HA)): 2356.91
- increase in the content of hyaluronic acid (HA) (hyaluronic acid (HA)): significant increase
- Effect of increasing the content of Elastin in the fibroblasts (Elastin (ELN)): 900.83
- increase in the content of Elastin (Elastin (ELN)): significant increase

Structure (SMILES): CNC(=O)CNC(=O)[C@H](Cc1c[nH]cn1)NC(=O)[C@H](CCCCN)NC(=O)[C@@H]1CCCN1C(=O)[C@@H]1CCCN1C(=O)[C@@H]1CCCN1C(C)=O [compound 286] (Ac-PPPKHG-NHMe)
- Effect of increasing the content of Collagen I in the fibroblasts [1]: 53.24
- increase in the content of type I collagen (Collagen I) [1]: significant increase
- Effect of increasing the content of HA in the fibroblasts (hyaluronic acid (HA)): 2791.21
- increase in the content of hyaluronic acid (HA) (hyaluronic acid (HA)): significant increase
- Effect of increasing the content of Elastin in the fibroblasts (Elastin (ELN)): 1096.59
- increase in the content of Elastin (Elastin (ELN)): significant increase

Structure (SMILES): CCCCCCCCCCCCCCCC(=O)N1CCC[C@H]1C(=O)N1CCC[C@H]1C(=O)N1CCC[C@H]1C(=O)NCC(=O)N[C@@H](Cc1c[nH]cn1)C(=O)N[C@@H](CCCCN)C(=O)O [compound 294] (Palmitoyl-PPPGHK-OH)
- Effect of increasing the content of Collagen I in the fibroblasts [1]: 91.47
- increase in the content of type I collagen (Collagen I) [1]: significant increase
- Effect of increasing the content of HA in the fibroblasts (hyaluronic acid (HA)): 1761.46
- increase in the content of hyaluronic acid (HA) (hyaluronic acid (HA)): significant increase
- Effect of increasing the content of Elastin in the fibroblasts (Elastin (ELN)): 1037.26
- increase in the content of Elastin (Elastin (ELN)): significant increase

Structure (SMILES): NCCCC[C@H](NC(=O)[C@H](Cc1c[nH]cn1)NC(=O)CNC(=O)[C@@H]1CCCN1C(=O)[C@@H]1CCCN1C(=O)[C@@H]1CCCN1C(=O)CCCC[C@@H]1SC[C@@H]2NC(=O)N[C@@H]21)C(N)=O [compound 296] (Biotin-PPPGHK-NH2)
- Effect of increasing the content of Collagen I in the fibroblasts [1]: 88.1
- increase in the content of type I collagen (Collagen I) [1]: significant increase
- Effect of increasing the content of HA in the fibroblasts (hyaluronic acid (HA)): 1686.42
- increase in the content of hyaluronic acid (HA) (hyaluronic acid (HA)): significant increase
- Effect of increasing the content of Elastin in the fibroblasts (Elastin (ELN)): 930.98
- increase in the content of Elastin (Elastin (ELN)): significant increase

Structure (SMILES): CNC(=O)[C@H](Cc1ccc(C)cc1)NC(=O)[C@H](C)NC(=O)[C@H](CCCCN)NC(=O)[C@H](Cc1c[nH]cn1)NC(=O)CNC(=O)[C@H](CCCC[N+](C)(C)C)NC(C)=O [compound 337] (Ac-[Lys(Me3)]GHKA[Phe(4-Me)]-NHMe)
- Effect of increasing the content of Collagen I in the fibroblasts [1]: 95.66
- increase in the content of type I collagen (Collagen I) [1]: significant increase
- Effect of increasing the content of HA in the fibroblasts (hyaluronic acid (HA)): 2421.21
- increase in the content of hyaluronic acid (HA) (hyaluronic acid (HA)): significant increase
- Effect of increasing the content of Elastin in the fibroblasts (Elastin (ELN)): 1320.95
- increase in the content of Elastin (Elastin (ELN)): significant increase

Structure (SMILES): CNC(=O)[C@H](Cc1ccc(Cl)c(Cl)c1)NC(=O)[C@H](C)NC(=O)[C@H](CCCCN)NC(=O)[C@H](Cc1c[nH]cn1)NC(=O)CNC(=O)[C@H](CCCC[N+](C)(C)C)NC(C)=O [compound 338] (Ac-[Lys(Me3)]GHKA[Phe(3,4-Cl2)]-NHMe)
- Effect of increasing the content of Collagen I in the fibroblasts [1]: 89.07
- increase in the content of type I collagen (Collagen I) [1]: significant increase
- Effect of increasing the content of HA in the fibroblasts (hyaluronic acid (HA)): 1913.07
- increase in the content of hyaluronic acid (HA) (hyaluronic acid (HA)): significant increase
- Effect of increasing the content of Elastin in the fibroblasts (Elastin (ELN)): 1060.72
- increase in the content of Elastin (Elastin (ELN)): significant increase

Structure (SMILES): CNC(=O)[C@H](Cc1ccc(C)cc1)NC(=O)CNC(=O)[C@H](CCCCN)NC(=O)[C@H](Cc1c[nH]cn1)NC(=O)CNC(=O)[C@H](CCCC[N+](C)(C)C)NC(C)=O [compound 349] (Ac-[Lys(Me3)]GHKG[Phe(4-Me)]-NHMe)
- Effect of increasing the content of Collagen I in the fibroblasts [1]: 90.16
- increase in the content of type I collagen (Collagen I) [1]: significant increase
- Effect of increasing the content of HA in the fibroblasts (hyaluronic acid (HA)): 1794.21
- increase in the content of hyaluronic acid (HA) (hyaluronic acid (HA)): significant increase
- Effect of increasing the content of Elastin in the fibroblasts (Elastin (ELN)): 836
- increase in the content of Elastin (Elastin (ELN)): significant increase

Structure (SMILES): CNC(=O)[C@H](CCCC[N+](C)(C)C)NC(=O)CNC(=O)[C@H](Cc1c[nH]cn1)NC(=O)[C@H](CCCCN)NC(=O)[C@H](Cc1ccc(C)cc1)NC(C)=O [compound 358] (Ac-[Phe(4-Me)]KHG[Lys(Me3)]-NHMe)
- Effect of increasing the content of Collagen I in the fibroblasts [1]: 81.27
- increase in the content of type I collagen (Collagen I) [1]: significant increase
- Effect of increasing the content of HA in the fibroblasts (hyaluronic acid (HA)): 1913.78
- increase in the content of hyaluronic acid (HA) (hyaluronic acid (HA)): significant increase
- Effect of increasing the content of Elastin in the fibroblasts (Elastin (ELN)): 1133.42
- increase in the content of Elastin (Elastin (ELN)): significant increase

Structure (SMILES): CNC(=O)[C@H](Cc1ccc(C)cc1)NC(=O)[C@H](CCCCNC(=O)[C@@H]1C[C@@H](O)CN1)NC(=O)[C@H](Cc1c[nH]cn1)NC(=O)CNC(=O)[C@H](CCCC[N+](C)(C)C)NC(C)=O [compound 373] (Ac-[Lys(Me3)]GHK(Hyp)[Phe(4-Me)]-NHMe)
- Effect of increasing the content of Collagen I in the fibroblasts [1]: 57.84
- increase in the content of type I collagen (Collagen I) [1]: significant increase
- Effect of increasing the content of HA in the fibroblasts (hyaluronic acid (HA)): 2472.81
- increase in the content of hyaluronic acid (HA) (hyaluronic acid (HA)): significant increase
- Effect of increasing the content of Elastin in the fibroblasts (Elastin (ELN)): 843.14
- increase in the content of Elastin (Elastin (ELN)): significant increase

Structure (SMILES): CCCCCCCCCCCCCCCC(=O)N[C@@H](CCCC[N+](C)(C)C)C(=O)NCC(=O)N[C@@H](Cc1c[nH]cn1)C(=O)N[C@@H](CCCCNC(=O)[C@@H]1CCCN1)C(=O)N[C@@H](Cc1ccc(C)cc1)C(=O)O [compound 397] (Palmitoyl-[Lys(Me3)]GHK(Pro)[Phe(4-Me)]-OH)
- Effect of increasing the content of Collagen I in the fibroblasts [1]: 54.45
- increase in the content of type I collagen (Collagen I) [1]: significant increase
- Effect of increasing the content of HA in the fibroblasts (hyaluronic acid (HA)): 1832.87
- increase in the content of hyaluronic acid (HA) (hyaluronic acid (HA)): significant increase
- Effect of increasing the content of Elastin in the fibroblasts (Elastin (ELN)): 1115.1
- increase in the content of Elastin (Elastin (ELN)): significant increase

Reference: patent publication EP4786485A1, “STRAIGHT CHAIN PEPTIDE COMPOUND AND USE THEREOF” (Shenzhen Zhongge Biological Technology Co., Ltd., priority 2023, dated 2026)
